Data set [1] in a line: Cytotoxicity by the MTT method, K562. In kind it is cell-based. The settings on record: human, K562 cells (leukemia cell line), 36 h incubation with compound. Here is the method: (§1) The cytotoxic activity of compounds 1–3 and 5–8 against human cervical cancer cell lines (Hela), human hepatic carcinoma cell lines (BEL-7402), leukemia cell lines (K562), and human gastric cell lines (SGC-7901) was assayed by the MTT method ([Mosmann, 1983]; [Wang et al., 2013]). These cell lines were purchased from Shang Hai Cell Bank of Chinese Academy of Sciences. Hela, BEL-7402, K562, and SGC-7901 cell lines were cultured in RPMI-1640 with 10% FBS under a humidified atmosphere of 5% CO2 and 95% air at 37°C, and 198 μl of the cell suspension was plated in 96-well microtiter plates. After being incubated for 24 h, 2 μl of the test solutions in DMSO was added to each well and further incubated for 36 h. The MTT solution (20 μl, 5 mg/ml in IPMI-1640 medium) was then added to each well and further incubated for 4 h. Finally, the medium containing MTT (150 μl) was gently replaced by DMSO and pipetted to dissolve any formazan crystals formed. Absorbance was then determined on a Multiskan FC photometric microplate reader (Thermo Fisher Scientific) at 570 nm. Adriamycin was used as the positive control drug.
(In general: Formazan colour is commonly taken as a measure of viable cells.)

Data set [2] in a line: Cytotoxicity by the MTT method, SGC-7901. Type of data set: cell-based. As to conditions: human, SGC-7901 cells (human gastric cell line), 36 h incubation with compound. As to the method:
as §1

Data set [3] is described as follows: Cytotoxicity by the MTT method, Hela. Type of data set: cell-based. As to conditions: human, HeLa cells (human cervical cancer cell line), 36 h incubation with compound. As to the method:
as §1

Data set [4] is described as follows: Cytotoxicity by the MTT method, BEL-7402. In kind it is cell-based. As to conditions: human, BEL-7042 (printed in table; BEL-7402 in text) cells, 36 h incubation with compound. As to the method: as §1
For data set [5], the target named is α-glucosidase (from baker's yeast). As to the kind of experiment: α-Glycosidase inhibitory activity (p-nitrophenyl α-D-glucopyranoside substrate). Type of data set: biochemical. The settings on record: α-glucosidase 0.2 U/ml, phosphate buffer pH 6.8, pNPG substrate, 37°C 15 min, absorbance 405 nm. As to the method:
A mixture including 25 μl of different compounds (final concentrations of 0.0625, 0.125, 0.25, 0.5, and 1.0 mM), 25 μl of α-glucosidase (0.2 U/ml, from baker’s yeast, Sigma), and 175 μl phosphate buffer (pH 6.8) was left to stand for 10 min at room temperature in a 96-well plate, and then 25 μl of 23.2 mM p-nitrophenyl α-D-glucopyranoside (Sigma-Aldrich) was added and further incubated at 37°C for 15 min. Finally, the absorbance was measured at 405 nm to determine the amount of p-nitrophenol cleaved by the enzyme using a Synergy H1 Hybrid Multi-Mode Microplate Reader (BioTek Instruments, Inc.). The control was prepared by adding phosphate buffer instead of the sample in the same way as the test. The blank was prepared by adding phosphate buffer instead of α-glucosidase using the same method.

SMILES strings stand for the structures.

For 8 compounds, IC50 results are on record in article PMC8717711, “Metabolites From the Mangrove-Derived Fungus Cladosporium sp. HNWSW-1” (Frontiers in Chemistry, 2021).

`COc1cccc2c1C(=O)c1c(O)c3c(c(O)c1C2=O)C[C@@](O)(C(=O)CO)C[C@@H]3O[C@H]1C[C@H](N)[C@H](O)[C@H](C)O1` [Adriamycin, reference compound]: the IC50 – broadly, the midpoint of a concentration-inhibition curve – at 36 h in data set [1] is 0.1 ± 0.01 µM; in data set [2] it was 0.22 ± 0.01 µM; in data set [3] it was 0.28 ± 0.01 µM; in data set [4], 0.47 ± 0.01 µM.
Turning to `CC(O)(CCC(=O)O)CCc1cc(C(=O)O)ccc1O` (stereo not drawn) [Compound 1, cladoslide A], the IC50 at 36 h in data set [1] was 13.1 ± 0.08 µM; in data set [2], over 100 µM; in data set [3] it was over 100 µM; in data set [4] it was over 100 µM. Moreover, the IC50 in data set [5] is 320 ± 10 µM.
On to `COC(=O)CCC(C)(O)CCc1cc(C(=O)O)ccc1O` (stereo not drawn) [Compound 2, cladoslide B], for which the IC50 at 36 h in data set [1], in data set [2], in data set [3] and in data set [4] was over 100 µM in each case. Also, in data set [5], the IC50 is over 1000 µM.
For the compound `CC(C)C[C@H](NC(=O)c1nc(C(=O)O)cc2c1[nH]c1ccccc12)C(=O)O` [Compound 3, cladospomine], the IC50 at 36 h in data set [1], in data set [2], in data set [3] and in data set [4] was over 100 µM throughout. Moreover, the IC50 in data set [5] was over 1000 µM.
In the case of `CC(=O)NCC(=O)c1c[nH]c2ccccc12` [Compound 5, N-acetyl-β-oxotryptamine], the IC50 at 36 h in data set [1], in data set [2], in data set [3] and in data set [4] was over 100 µM each time. In data set [5], the 50% inhibitory concentration (IC50) amounted to 170 ± 10 µM.
Turning to `C[C@@H](O)CCCCC[C@H](O)[C@@H]1C=CC(=O)O1` [Compound 6, (4S,5S,11R)-iso-cladospolide B], the IC50 at 36 h in data set [1], in data set [2], in data set [3] and in data set [4] was over 100 µM each time. The IC50 in data set [5] was over 1000 µM.
Turning to `C[C@H](O)CCCCC[C@H](O)[C@@H]1C=CC(=O)O1` [Compound 7, (4S,5S,11S)-iso-cladospolide B], the IC50 at 36 h in data set [1], in data set [2], in data set [3] and in data set [4] was over 100 µM each time. Further, the IC50 in data set [5] is over 1000 µM.
For the compound `C[C@@H](O)CCCCC[C@H](O)[C@H]1C=CC(=O)O1` [Compound 8, (4R,5S,11R)-iso-cladospolide B], the IC50 at 36 h in data set [1], in data set [2], in data set [3] and in data set [4] was over 100 µM throughout. For the same compound, the IC50 in data set [5] is over 1000 µM.
